{"source": "ChEMBL document CHEMBL3046433", "about": "“Synthesis and Antimuscarinic Activity of Derivatives of 2-Substituted-1,3-Dioxolanes” (Med Chem Res, 2005)", "key": {"[1]": {"organism": "Oryctolagus cuniculus", "experiment": "Binding affinity to Oryctolagus cuniculus (rabbit) vas deferens M1 receptor after 1 hr"}, "[2]": {"experiment": "Selectivity ratio of pKb for rabbit vas deferens M1 receptor to pKb for guinea pig ileum M3 receptor", "format": "tissue-based"}, "[3]": {"organism": "Cavia porcellus", "experiment": "Selectivity ratio of pKb for Cavia porcellus (guinea pig) ileum M3 receptor to pKb for Cavia porcellus (guinea pig) left atria M2 receptor", "format": "tissue-based", "conditions": "Atrium/Ileum"}, "[4]": {"biological_target": "T1, Muscarinic receptor 2 (Cavia porcellus) (UniProt Q8VH27)", "T1 sequence (whole entry)": "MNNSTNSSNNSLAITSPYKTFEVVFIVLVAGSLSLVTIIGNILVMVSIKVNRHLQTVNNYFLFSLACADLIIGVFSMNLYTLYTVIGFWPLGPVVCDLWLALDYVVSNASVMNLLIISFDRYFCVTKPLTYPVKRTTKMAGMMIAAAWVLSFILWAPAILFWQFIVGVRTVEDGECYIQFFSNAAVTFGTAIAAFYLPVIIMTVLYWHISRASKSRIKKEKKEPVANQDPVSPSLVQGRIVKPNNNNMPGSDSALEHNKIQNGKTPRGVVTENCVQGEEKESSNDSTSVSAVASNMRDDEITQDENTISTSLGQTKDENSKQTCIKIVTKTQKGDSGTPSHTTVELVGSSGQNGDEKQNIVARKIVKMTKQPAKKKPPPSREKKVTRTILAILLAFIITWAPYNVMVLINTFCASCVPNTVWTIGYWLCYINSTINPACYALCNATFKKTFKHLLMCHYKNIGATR", "experiment": "Binding affinity to Cavia porcellus (guinea pig) left atria M2 receptor after 2 hr"}, "[5]": {"biological_target": "Muscarinic acetylcholine receptor M3 (Cavia porcellus) (UniProt Q8VH26)", "sequence (Q8VH26 1-587)": "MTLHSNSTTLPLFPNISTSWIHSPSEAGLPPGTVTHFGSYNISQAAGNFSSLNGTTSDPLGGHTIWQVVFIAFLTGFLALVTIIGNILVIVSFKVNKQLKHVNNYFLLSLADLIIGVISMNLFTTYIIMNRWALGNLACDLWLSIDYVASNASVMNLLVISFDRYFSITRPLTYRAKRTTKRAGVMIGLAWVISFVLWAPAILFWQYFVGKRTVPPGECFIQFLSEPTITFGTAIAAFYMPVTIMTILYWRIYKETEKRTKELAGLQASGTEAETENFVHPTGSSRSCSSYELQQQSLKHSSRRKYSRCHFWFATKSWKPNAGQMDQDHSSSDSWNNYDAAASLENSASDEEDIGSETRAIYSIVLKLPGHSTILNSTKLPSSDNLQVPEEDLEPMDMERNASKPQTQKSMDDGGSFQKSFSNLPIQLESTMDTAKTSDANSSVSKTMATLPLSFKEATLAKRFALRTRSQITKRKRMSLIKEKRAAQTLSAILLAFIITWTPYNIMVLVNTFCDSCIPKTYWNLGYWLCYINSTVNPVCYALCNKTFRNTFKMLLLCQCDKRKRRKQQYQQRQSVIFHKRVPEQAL", "experiment": "Binding affinity to Cavia porcellus (guinea pig) ileum M3 receptor after 30 min", "format": "tissue-based"}, "[6]": {"experiment": "Selectivity ratio of pKb for rabbit vas deferens M1 receptor to pKb for guinea pig left atria M2 receptor"}, "[7]": {"biological_target": "Muscarinic acetylcholine receptor M3 (Cavia porcellus, UniProt Q8VH26)", "sequence (Q8VH26 whole entry)": "as the sequence (Q8VH26 1-587) above", "experiment": "Antagonist activity at Cavia porcellus (guinea pig) ileum M3 receptor after 30 min", "format": "tissue-based", "conditions": "read-out: pA2 (converted)"}, "[8]": {"biological_target": "T2, Muscarinic receptor 2 (Cavia porcellus, UniProt Q8VH27)", "T2 sequence (Q8VH27 whole entry)": "T1 sequence (whole entry)", "experiment": "Antagonist activity at Cavia porcellus (guinea pig) left atria M2 receptor after 2 hr", "conditions": "read-out: pA2 (converted)"}}, "data": [{"smiles": "C[C@@H]1OC(c2ccccc2)(c2ccccc2)O[C@@H]1CN(C)C", "note": "(relative stereo)", "values": [{"measurement": "pKb", "setting": "[1]", "result": 6.35}, {"measurement": "Ratio pKb", "setting": "[2]", "result": 0.8}, {"measurement": "Ratio pKb", "setting": "[3]", "result": 0.9}, {"measurement": "pKb", "setting": "[4]", "result": 6.48}, {"measurement": "pKb", "setting": "[5]", "result": 6.44}, {"measurement": "Ratio pKb", "setting": "[6]", "result": 0.7}]}, {"smiles": "C[C@H]1OC(c2ccccc2)(c2ccccc2)O[C@@H]1CN(C)C", "note": "(relative stereo)", "values": [{"measurement": "pKb", "setting": "[1]", "result": 6.87}, {"measurement": "Ratio pKb", "setting": "[2]", "result": 1}, {"measurement": "Ratio pKb", "setting": "[3]", "result": 1}, {"measurement": "pKb", "setting": "[4]", "result": 6.71}, {"measurement": "pKb", "setting": "[5]", "result": 6.71}, {"measurement": "Ratio pKb", "setting": "[6]", "result": 1}]}, {"smiles": "CN(C)C[C@@H]1CO[C@@H](C(c2ccccc2)c2ccccc2)O1", "values": [{"measurement": "pKb", "setting": "[1]", "result": 6.9}, {"measurement": "Ratio pKb", "setting": "[2]", "result": 2}, {"measurement": "Ratio pKb", "setting": "[3]", "result": 1}, {"measurement": "pKb", "setting": "[4]", "result": 6.56}, {"measurement": "pKb", "setting": "[5]", "result": 6.67}, {"measurement": "Ratio pKb", "setting": "[6]", "result": 2}]}, {"smiles": "CN(C)C[C@@H]1CO[C@H](C(c2ccccc2)c2ccccc2)O1", "values": [{"measurement": "pKb", "setting": "[1]", "result": 7.31}, {"measurement": "Ratio pKb", "setting": "[2]", "result": 17}, {"measurement": "Ratio pKb", "setting": "[3]", "result": 0.3}, {"measurement": "pKb", "setting": "[4]", "result": 6.62}, {"measurement": "pKb", "setting": "[5]", "result": 6.07}, {"measurement": "Ratio pKb", "setting": "[6]", "result": 5}]}, {"smiles": "CN(C)[C@H]1CO[C@H](C(c2ccccc2)c2ccccc2)OC1", "values": [{"measurement": "Kb", "setting": "[7]", "result": 372, "unit": "nM"}, {"measurement": "Kb", "setting": "[8]", "result": 1580, "unit": "nM"}]}, {"smiles": "CN(C)CC1COC(c2ccccc2)(c2ccccc2)O1", "note": "(centres undefined)", "values": [{"measurement": "pKb", "setting": "[1]", "result": 7.15}, {"measurement": "Ratio pKb", "setting": "[2]", "result": 3}, {"measurement": "Ratio pKb", "setting": "[3]", "result": 0.4}, {"measurement": "pKb", "setting": "[4]", "result": 7.11}, {"measurement": "pKb", "setting": "[5]", "result": 6.72}, {"measurement": "Ratio pKb", "setting": "[6]", "result": 1}]}, {"smiles": "CN(C)[C@H]1CO[C@@H](C(c2ccccc2)c2ccccc2)OC1", "values": [{"measurement": "Kb", "setting": "[7]", "result": 5.37, "unit": "nM"}, {"measurement": "Kb", "setting": "[8]", "result": 28.2, "unit": "nM"}]}]}
